Measurements as given in patent US20240408169A1 (priority 2023, published 2024).
pIC50: −log10 of the molar value. *1 amine or outer side, *2 acyl side, *3 side chain or, on linkers, in order; H or OH if unused. Where a SMILES comes first, the peptide text is derived from it. Bridges are numbered along the chain shown (N, C = ends). [ ]: non-standard residue; d: D form. The star is where a group is joined. X53 = CN1[C@@H]2CC[C@H]1CN(c1ccc(-c3ccc(Cl)cc3C[C@@H](C(=O)[*:2])N(C)[*:1])cc1)C2; X52 = CN1C[C@@H]2C[C@H]1CN2c1ccc(-c2ccc(Cl)cc2C[C@@H](C(=O)[*:2])N(C)[*:1])cc1; X38 = CN([C@@H](Cc1cc(Cl)ccc1-c1ccc(N2C[C@H]3COC[C@H]3C2)cc1)C(=O)[*:2])[*:1]; X21 = CN([C@@H](Cc1cc(Cl)ccc1-c1ccc(N2CCN3CCOC[C@H]3C2)cc1)C(=O)[*:2])[*:1]; X3 = COCCOCCN1CCN(c2ccc(-c3ccc(Cl)cc3C[C@@H](C(=O)[*:2])N(C)[*:1])cc2)CC1; X43 = CC(C)N1CCN(c2ccc(-c3ccc(Cl)cc3C[C@@H](C(=O)[*:2])N(C)[*:1])cc2)CC1; X98 = CN1CC2(C1)OCc1cc(-c3ccc(Cl)cc3C[C@@H](C(=O)[*:2])N(C)[*:1])ccc12; X40 = CN1CCN(Cc2ccc(-c3ccc(Cl)cc3C[C@@H](C(=O)[*:2])N(C)[*:1])cc2)CC1; X80 = CN1CC=C(c2ccc(-c3ccc(Cl)cc3C[C@@H](C(=O)[*:2])N(C)[*:1])cc2)CC1; X31 = CN1CCC(c2ccc(-c3ccc(Cl)cc3C[C@@H](C(=O)[*:2])N(C)[*:1])cc2)CC1; X71 = CN([C@@H](Cc1cc(Cl)ccc1-c1ccc(N2CCOCC2)c(F)c1)C(=O)[*:2])[*:1]; X108 = CN([C@@H](Cc1cc(Cl)ccc1-c1ccc(CN2CCOCC2)cc1)C(=O)[*:2])[*:1]; X12 = CN1CCN(c2ccc(-c3ccc(F)cc3C[C@@H](C(=O)[*:2])N(C)[*:1])cc2)CC1; X81 = COc1cc(N2CCOCC2)ccc1-c1ccc(Cl)cc1C[C@@H](C(=O)[*:2])N(C)[*:1]; NMehhhLys(Me) = CN([C@@H](CCCCCCCN(C)[*:3])C(=O)[*:2])[*:1]; cBuCO(3,3-F2-1-CF3) = O=C(C1(C(F)(F)F)CC(F)(F)C1)*; Pro(trans-4-F) = O=C(O)[C@@H]1C[C@@H](F)CN1; Gly(cPr) = N[C@H](C(=O)O)C1CC1

How the values were obtained:
OVCAR3 cells = test: MTT proliferation assay, OVCAR3; format: cell-based; conditions: 5 days compound exposure, 1:3 serial dilution starting at 10 μM;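 further: compound given as an 8- or 10-point series, one day after plating, with exposure covering roughly 3-4 cell doublings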
CyclinA2/CDK2 = biological target: T1, CyclinA2/CDK2 (Homo sapiens, UniProt P20248); test: Fluorescence Polarization (FP) competitive binding assay, Cyclin A2/Cdk2; conditions: 8 nM Cyclin A2/Cdk2, 2 nM FAM probe; average of 2-3 independent experiments; read-out: Cyclin A FP IC50;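 further: plates equilibrated two hours at room temperature before polarization reading, IC50 fitted from eight-concentration compound titration curves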
T1 construct: purchased CRELUX Protein Services

CyclinB1/CDK1 = biological target: T2, CyclinB1/CDK1 (Homo sapiens, UniProt P14635); test: Fluorescence Polarization (FP) competitive binding assay, Cyclin B1/Cdk1; conditions: 10 nM Cyclin B1/Cdk1, 2 nM FAM probe; average of 2-3 independent experiments; read-out: Cyclin B FP IC50;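 further: fluorescence polarization read after equilibration at room temperature, with IC50 taken from serially diluted dose-response curves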
T2 construct: purchased Eurofins, discovery 14-450

CyclinE1/CDK2 = biological target: T3, CyclinE1/CDK2 (Homo sapiens, UniProt P24864); test: Fluorescence Polarization (FP) competitive binding assay, Cyclin E1/Cdk2; conditions: 10 nM Cyclin E1/Cdk2, 2 nM FAM probe; average of 2-3 independent experiments; read-out: Cyclin E FP IC50;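 further: readings taken after two-hour equilibration at room temperature in HEPES buffer with NaCl, DTT, NP-40 and BSA, IC50 fitted from eight-concentration serial dilution series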
T3 construct: purchased Eurofins, discovery 14-475

NCI-H1048 cells = test: MTT proliferation assay, NCI-H1048; format: cell-based; conditions: 5 days compound exposure, 1:3 serial dilution starting at 10 μM;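 further: Dose-response in 96-well plates over 8 or 10 concentration points, with exposure spanning 3-4 cell doublings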
WI-38 cells = test: MTT proliferation assay, WI-38; format: cell-based; conditions: 3 days compound exposure, 1:3 serial dilution starting at 10 μM;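 further: Eight- or ten-point dilution series, with exposure length chosen to span about three to four cell doublings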

Structure (SMILES)	GI50 (OVCAR3 cells) [nM]	pIC50 (CyclinA2/CDK2)	pIC50 (CyclinB1/CDK1)	pIC50 (CyclinE1/CDK2)	GI50 (NCI-H1048 cells) [nM]	GI50 (WI-38 cells) [nM]
CC(C)C[C@@H]1NC(=O)[C@@H](N(C)C(=O)[C@@H](NC(=O)[C@@H]2C[C@@H](F)CN2C(=O)C2(C(F)(F)F)CC(F)(F)C2)C2CC2)CCCCCCCN(C)C(=O)[C@H](Cc2cc(Cl)ccc2-c2ccc(N3CCN(C(C)C)CC3)cc2)N(C)C1=O [Example 347] ({cBuCO(3,3-F2-1-CF3)}-[Pro(trans-4-F)][Gly(cPr)][NMehhhLys(Me)]L[X43]; lactam 3-C)	10	7.70	7.70	6.19	10	1810
CC(C)C[C@@H]1NC(=O)[C@@H](N(C)C(=O)[C@@H](NC(=O)[C@@H]2C[C@@H](F)CN2C(=O)C2(C(F)(F)F)CC(F)(F)C2)C2CC2)CCCCCCCN(C)C(=O)[C@H](Cc2cc(Cl)ccc2-c2ccc(N3CCOCC3)c(F)c2)N(C)C1=O [Example 348] ({cBuCO(3,3-F2-1-CF3)}-[Pro(trans-4-F)][Gly(cPr)][NMehhhLys(Me)]L[X71]; lactam 3-C)	10	7.70	7.70	6.06	10	18000
CC(C)C[C@@H]1NC(=O)[C@@H](N(C)C(=O)[C@@H](NC(=O)[C@@H]2C[C@@H](F)CN2C(=O)C2(C(F)(F)F)CC(F)(F)C2)C2CC2)CCCCCCCN(C)C(=O)[C@H](Cc2cc(Cl)ccc2-c2ccc(C3=CCN(C)CC3)cc2)N(C)C1=O [Example 351] ({cBuCO(3,3-F2-1-CF3)}-[Pro(trans-4-F)][Gly(cPr)][NMehhhLys(Me)]L[X80]; lactam 3-C)	10	7.70	7.70	6.01	10	1780
CC(C)C[C@@H]1NC(=O)[C@@H](N(C)C(=O)[C@@H](NC(=O)[C@@H]2C[C@@H](F)CN2C(=O)C2(C(F)(F)F)CC(F)(F)C2)C2CC2)CCCCCCCN(C)C(=O)[C@H](Cc2cc(F)ccc2-c2ccc(N3CCN(C)CC3)cc2)N(C)C1=O [Example 353] ({cBuCO(3,3-F2-1-CF3)}-[Pro(trans-4-F)][Gly(cPr)][NMehhhLys(Me)]L[X12]; lactam 3-C)	10	7.70	7.70	6.66	10	3490
CC(C)C[C@@H]1NC(=O)[C@@H](N(C)C(=O)[C@@H](NC(=O)[C@@H]2C[C@@H](F)CN2C(=O)C2(C(F)(F)F)CC(F)(F)C2)C2CC2)CCCCCCCN(C)C(=O)[C@H](Cc2cc(Cl)ccc2-c2ccc3c(c2)COC32CN(C)C2)N(C)C1=O [Example 355] ({cBuCO(3,3-F2-1-CF3)}-[Pro(trans-4-F)][Gly(cPr)][NMehhhLys(Me)]L[X98]; lactam 3-C)	10	7.70	7.70	5.75	10	2770
COCCOCCN1CCN(c2ccc(-c3ccc(Cl)cc3C[C@H]3C(=O)N(C)CCCCCCC[C@H](N(C)C(=O)[C@@H](NC(=O)[C@@H]4C[C@@H](F)CN4C(=O)C4(C(F)(F)F)CC(F)(F)C4)C4CC4)C(=O)N[C@@H](CC(C)C)C(=O)N3C)cc2)CC1 [Example 356] ({cBuCO(3,3-F2-1-CF3)}-[Pro(trans-4-F)][Gly(cPr)][NMehhhLys(Me)]L[X3]; lactam 3-C)	10	7.70	7.70	6.47	10	3430
CC(C)C[C@@H]1NC(=O)[C@@H](N(C)C(=O)[C@@H](NC(=O)[C@@H]2C[C@@H](F)CN2C(=O)C2(C(F)(F)F)CC(F)(F)C2)C2CC2)CCCCCCCN(C)C(=O)[C@H](Cc2cc(Cl)ccc2-c2ccc(N3C[C@@H]4C[C@H]3CN4C)cc2)N(C)C1=O [Example 357] ({cBuCO(3,3-F2-1-CF3)}-[Pro(trans-4-F)][Gly(cPr)][NMehhhLys(Me)]L[X52]; lactam 3-C)	50	7.52	7.70	5.71	20	3140
CC(C)C[C@@H]1NC(=O)[C@@H](N(C)C(=O)[C@@H](NC(=O)[C@@H]2C[C@@H](F)CN2C(=O)C2(C(F)(F)F)CC(F)(F)C2)C2CC2)CCCCCCCN(C)C(=O)[C@H](Cc2cc(Cl)ccc2-c2ccc(C3CCN(C)CC3)cc2)N(C)C1=O [Example 358] ({cBuCO(3,3-F2-1-CF3)}-[Pro(trans-4-F)][Gly(cPr)][NMehhhLys(Me)]L[X31]; lactam 3-C)	10	7.70	7.70	6.26	10	2130
CC(C)C[C@@H]1NC(=O)[C@@H](N(C)C(=O)[C@@H](NC(=O)[C@@H]2C[C@@H](F)CN2C(=O)C2(C(F)(F)F)CC(F)(F)C2)C2CC2)CCCCCCCN(C)C(=O)[C@H](Cc2cc(Cl)ccc2-c2ccc(CN3CCOCC3)cc2)N(C)C1=O [Example 359, (2S,4R)—N—((S)-2-(((3S,6S,9S)-3-((4-chloro-4′-(morpholinomethyl)-[1,1′-biphenyl]-2-yl)methyl)-6-isobutyl-1,4-dimethyl-2,5,8-trioxo-1,4,7-triazacyclohexadecan-9-yl)(methyl)amino)-1-cyclopropyl-2-oxoethyl)-1-(3,3-difluoro-1-(trifluoromethyl)cyclobutane-1-carbonyl)-4-fluoropyrrolidine-2-carboxamide] ({cBuCO(3,3-F2-1-CF3)}-[Pro(trans-4-F)][Gly(cPr)][NMehhhLys(Me)]L[X108]; lactam 3-C)	10	7.70	7.70	6.17	10	4560
CC(C)C[C@@H]1NC(=O)[C@@H](N(C)C(=O)[C@@H](NC(=O)[C@@H]2C[C@@H](F)CN2C(=O)C2(C(F)(F)F)CC(F)(F)C2)C2CC2)CCCCCCCN(C)C(=O)[C@H](Cc2cc(Cl)ccc2-c2ccc(CN3CCN(C)CC3)cc2)N(C)C1=O [Example 360] ({cBuCO(3,3-F2-1-CF3)}-[Pro(trans-4-F)][Gly(cPr)][NMehhhLys(Me)]L[X40]; lactam 3-C)	10	7.70	7.70	6.07	10	2720
COc1cc(N2CCOCC2)ccc1-c1ccc(Cl)cc1C[C@H]1C(=O)N(C)CCCCCCC[C@H](N(C)C(=O)[C@@H](NC(=O)[C@@H]2C[C@@H](F)CN2C(=O)C2(C(F)(F)F)CC(F)(F)C2)C2CC2)C(=O)N[C@@H](CC(C)C)C(=O)N1C [Example 361] ({cBuCO(3,3-F2-1-CF3)}-[Pro(trans-4-F)][Gly(cPr)][NMehhhLys(Me)]L[X81]; lactam 3-C)	10	7.30	7.70	5.74	30	14300
CC(C)C[C@@H]1NC(=O)[C@@H](N(C)C(=O)[C@@H](NC(=O)[C@@H]2C[C@@H](F)CN2C(=O)C2(C(F)(F)F)CC(F)(F)C2)C2CC2)CCCCCCCN(C)C(=O)[C@H](Cc2cc(Cl)ccc2-c2ccc(N3C[C@H]4CC[C@@H](C3)N4C)cc2)N(C)C1=O [Example 362] ({cBuCO(3,3-F2-1-CF3)}-[Pro(trans-4-F)][Gly(cPr)][NMehhhLys(Me)]L[X53]; lactam 3-C)	10	7.70	7.70	6.22	10	1280
CC(C)C[C@@H]1NC(=O)[C@@H](N(C)C(=O)[C@@H](NC(=O)[C@@H]2C[C@@H](F)CN2C(=O)C2(C(F)(F)F)CC(F)(F)C2)C2CC2)CCCCCCCN(C)C(=O)[C@H](Cc2cc(Cl)ccc2-c2ccc(N3C[C@H]4COC[C@H]4C3)cc2)N(C)C1=O [Example 363] ({cBuCO(3,3-F2-1-CF3)}-[Pro(trans-4-F)][Gly(cPr)][NMehhhLys(Me)]L[X38]; lactam 3-C)	10	7.70	7.70	6.33	10	1430
CC(C)C[C@@H]1NC(=O)[C@@H](N(C)C(=O)[C@@H](NC(=O)[C@@H]2C[C@@H](F)CN2C(=O)C2(C(F)(F)F)CC(F)(F)C2)C2CC2)CCCCCCCN(C)C(=O)[C@H](Cc2cc(Cl)ccc2-c2ccc(N3CCN4CCOC[C@H]4C3)cc2)N(C)C1=O [Example 364] ({cBuCO(3,3-F2-1-CF3)}-[Pro(trans-4-F)][Gly(cPr)][NMehhhLys(Me)]L[X21]; lactam 3-C)	10	7.70	7.70	6.37	10	3250
